Assay results as given in PubChem BioAssay AID1963856 (Molecular Pharmacology Branch, DTP, NCI, 2024).

Tested on: LG0567-F671-PDC KRAS tumor spheroid viability
Test: Anticancer human tumor LG0567-F671-PDC patient-derived lung adenocarcinoma cell line growth inhibition [KRAS2]
Conditions: spheroids with HUVEC and MSC; for IC50: curve of first compound; for viability, T/C: stronger effect = lower value
How it was run: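 Combination screen of spheroid viability in tumor-cell co-cultures with endothelial (HUVEC) and mesenchymal stem cell stroma. Each agent was tested in half-log dilutions, topping at clinical Cmax or at 10 microM without a known Cmax.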

[1] = second compound 0.1 µM, first compound 0.0316 µM
[2] = second compound 0.1 µM, first compound 0.1 µM
[3] = second compound 0.1 µM, first compound 0.316 µM
[4] = second compound 0.1 µM, first compound 1 µM
[5] = second compound 0.1 µM, first compound 3.16 µM
[6] = second compound 0.1 µM, first compound 10 µM
[7] = second compound 0.316 µM, first compound 0.0316 µM
[8] = second compound 0.316 µM, first compound 0.1 µM
[9] = second compound 0.316 µM, first compound 0.316 µM
[10] = second compound 0.316 µM, first compound 1 µM
[11] = second compound 0.316 µM, first compound 3.16 µM
[12] = second compound 0.316 µM, first compound 10 µM
[13] = second compound 1 µM, first compound 0.0316 µM
[14] = second compound 1 µM, first compound 0.1 µM
[15] = second compound 1 µM, first compound 0.316 µM
[16] = second compound 1 µM, first compound 1 µM
[17] = second compound 1 µM, first compound 3.16 µM
[18] = second compound 1 µM, first compound 10 µM
[19] = second compound 3.16 µM, first compound 0.0316 µM
[20] = second compound 3.16 µM, first compound 0.1 µM
[21] = second compound 3.16 µM, first compound 0.316 µM
[22] = second compound 3.16 µM, first compound 1 µM
[23] = second compound 3.16 µM, first compound 3.16 µM
[24] = second compound 3.16 µM, first compound 10 µM
[25] = second compound 10 µM, first compound 0.0316 µM
[26] = second compound 10 µM, first compound 0.1 µM
[27] = second compound 10 µM, first compound 0.316 µM
[28] = second compound 10 µM, first compound 1 µM
[29] = second compound 10 µM, first compound 3.16 µM
[30] = second compound 10 µM, first compound 10 µM
[31] = second compound 0.1 µM, first compound 0.000316 µM
[32] = second compound 0.1 µM, first compound 0.001 µM
[33] = second compound 0.1 µM, first compound 0.00316 µM
[34] = second compound 0.1 µM, first compound 0.01 µM
[35] = second compound 0.316 µM, first compound 0.000316 µM
[36] = second compound 0.316 µM, first compound 0.001 µM
[37] = second compound 0.316 µM, first compound 0.00316 µM
[38] = second compound 0.316 µM, first compound 0.01 µM
[39] = second compound 1 µM, first compound 0.000316 µM
[40] = second compound 1 µM, first compound 0.001 µM
[41] = second compound 1 µM, first compound 0.00316 µM
[42] = second compound 1 µM, first compound 0.01 µM
[43] = second compound 3.16 µM, first compound 0.000316 µM
[44] = second compound 3.16 µM, first compound 0.001 µM
[45] = second compound 3.16 µM, first compound 0.00316 µM
[46] = second compound 3.16 µM, first compound 0.01 µM
[47] = second compound 10 µM, first compound 0.000316 µM
[48] = second compound 10 µM, first compound 0.001 µM
[49] = second compound 10 µM, first compound 0.00316 µM
[50] = second compound 10 µM, first compound 0.01 µM
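Also: drug exposure lasted seven days after spheroids formed for three days.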
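For viability, T/C in this document: 100% = DMSO vehicle control viability.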

Row | SMILES | IC50 (second compound 0.1 µM) [nM] | IC50 (second compound 0.316 µM) [nM] | IC50 (second compound 1 µM) [nM] | IC50 (second compound 3.16 µM) [nM] | IC50 (second compound 10 µM) [nM] | viability, T/C [1] [%] | viability, T/C [2] [%] | viability, T/C [3] [%] | viability, T/C [4] [%] | viability, T/C [5] [%] | viability, T/C [6] [%] | viability, T/C [7] [%] | viability, T/C [8] [%] | viability, T/C [9] [%] | viability, T/C [13] [%] | viability, T/C [14] [%] | viability, T/C [19] [%] | viability, T/C [20] [%] | viability, T/C [25] [%] | viability, T/C [26] [%] | further results
1 | CC(C)NCC(C(=O)N1CCN(c2ncnc3c2C(C)CC3O)CC1)c1ccc(Cl)cc1 (stereo not given) + COc1cc2nc(C)nc(NC(C)c3cc(N)cc(C(F)(F)F)c3)c2cc1OC1CCOC1 | 484 | 467 | 216 | 415 | 50.7 | 75.4 | 69.1 | 56.2 | 42 | 14.1 | 33.5 | 75.8 | 65.2 | 59.1 | 71.5 | 58.5 | 60.1 | 58.3 | 56.7 | 39.8 | viability, T/C [10]: 33.9%; viability, T/C [11]: 8.71%; viability, T/C [12]: 23.5%; viability, T/C [15]: 44%; viability, T/C [16]: 32.2%; viability, T/C [17]: 7.19%; viability, T/C [18]: 2.61%; viability, T/C [21]: 66.4%; viability, T/C [22]: 12%; viability, T/C [23]: 5.68%; viability, T/C [24]: 19.6%; viability, T/C [27]: 21.6%; viability, T/C [28]: 5.09%; viability, T/C [29]: 3.01%; viability, T/C [30]: 4.23%
2 | CC(C)n1nc(-c2ccc3oc(N)nc3c2)c2c(N)ncnc21 + COc1cc2nc(C)nc(NC(C)c3cc(N)cc(C(F)(F)F)c3)c2cc1OC1CCOC1 | 56 | 15.7 | 2.92 | 0.992 | < 0.316 | 51.8 | 47.5 | – | – | – | – | 49.8 | 34.7 | – | 28.4 | 23.5 | 20.5 | 10.2 | 11.5 | 9.84 | viability, T/C [31]: 76.4%; viability, T/C [32]: 73.5%; viability, T/C [33]: 60.4%; viability, T/C [34]: 60.6%; viability, T/C [35]: 65.2%; viability, T/C [36]: 73.6%; viability, T/C [37]: 57.7%; viability, T/C [38]: 47.5%; viability, T/C [39]: 70.1%; viability, T/C [40]: 59.1%; viability, T/C [41]: 45.8%; viability, T/C [42]: 45.2%; viability, T/C [43]: 59.9%; viability, T/C [44]: 49.9%; viability, T/C [45]: 38.4%; viability, T/C [46]: 32%; viability, T/C [47]: 37.7%; viability, T/C [48]: 35.2%; viability, T/C [49]: 24.8%; viability, T/C [50]: 16.2%
3 | CC1(C)CCC(CN2CCN(c3ccc(C(=O)NS(=O)(=O)c4ccc(NCC5CCOCC5)c([N+](=O)[O-])c4)c(Oc4cnc5[nH]ccc5c4)c3)CC2)=C(c2ccc(Cl)cc2)C1 + COc1cc2nc(C)nc(NC(C)c3cc(N)cc(C(F)(F)F)c3)c2cc1OC1CCOC1 | 1510 | 1360 | 1360 | 1220 | 640 | 73.5 | 67.3 | 59 | 68.8 | 18.8 | 11.7 | 67.5 | 66.5 | 61.2 | 69 | 73.3 | 70.2 | 70.7 | 81.3 | 76.5 | viability, T/C [10]: 59.6%; viability, T/C [11]: 25%; viability, T/C [12]: 7.5%; viability, T/C [15]: 72.6%; viability, T/C [16]: 58.7%; viability, T/C [17]: 24.1%; viability, T/C [18]: 3.67%; viability, T/C [21]: 62.8%; viability, T/C [22]: 57.8%; viability, T/C [23]: 15.6%; viability, T/C [24]: 5.87%; viability, T/C [27]: 63%; viability, T/C [28]: 42.7%; viability, T/C [29]: 14.1%; viability, T/C [30]: 1.67%
4 | COc1cc2nccc(Oc3ccc(NC(=O)C4(C(=O)Nc5ccc(F)cc5)CC4)cc3)c2cc1OC + COc1cc2nc(C)nc(NC(C)c3cc(N)cc(C(F)(F)F)c3)c2cc1OC1CCOC1 | > 10000 | < 31.6 | < 31.6 | 204 | 175 | 78.6 | 71.5 | 56.5 | 32.8 | 101 | 95.6 | 61.5 | 58.6 | 45.4 | 43.8 | 53 | 63.7 | 62 | 71.7 | 54.2 | viability, T/C [10]: 25.6%; viability, T/C [11]: 87.3%; viability, T/C [12]: 74%; viability, T/C [15]: 42.7%; viability, T/C [16]: 20.9%; viability, T/C [17]: 79.8%; viability, T/C [18]: 53.3%; viability, T/C [21]: 42.1%; viability, T/C [22]: 24.8%; viability, T/C [23]: 9.35%; viability, T/C [24]: 72.6%; viability, T/C [27]: 49.2%; viability, T/C [28]: 37.4%; viability, T/C [29]: 1.24%; viability, T/C [30]: 78.7%
5 | Cn1ncnc1[C@H]1c2n[nH]c(=O)c3cc(F)cc(c23)N[C@@H]1c1ccc(F)cc1 + COc1cc2nc(C)nc(NC(C)c3cc(N)cc(C(F)(F)F)c3)c2cc1OC1CCOC1 | > 100 | > 100 | > 100 | > 100 | > 100 | 84.7 | 82.8 | – | – | – | – | 81.4 | 75.9 | – | 53.7 | 53.8 | 53.6 | 51.9 | 51.7 | 53.6 | viability, T/C [31]: 94.8%; viability, T/C [32]: 78.3%; viability, T/C [33]: 74.8%; viability, T/C [34]: 83.8%; viability, T/C [35]: 77.6%; viability, T/C [36]: 74.9%; viability, T/C [37]: 61.1%; viability, T/C [38]: 66.3%; viability, T/C [39]: 75.6%; viability, T/C [40]: 63.6%; viability, T/C [41]: 58.6%; viability, T/C [42]: 49.1%; viability, T/C [43]: 69.1%; viability, T/C [44]: 70%; viability, T/C [45]: 67.3%; viability, T/C [46]: 56.9%; viability, T/C [47]: 61.3%; viability, T/C [48]: 62.9%; viability, T/C [49]: 71.2%; viability, T/C [50]: 54.4%
